Assay results from publication PMC2673211, “Nitric oxide activates ATP-sensitive potassium channels in mammalian sensory neurons: action by direct S-nitrosylation” (Molecular Pain, 2009).

Legend:
Assay type in all cases: biochemical
[1] = target: T1, KATP channels in large DRG neurons (Rattus norvegicus, UniProt P70673+Q09429); assay: Excised inside-out (cell-free) patch-clamp recording of KATP channel activity
T1 construct: native KATP channels in large DRG neurons; endogenous in cells; host or cells: acutely dissociated large-diameter neurons from rat L4/L5 dorsal root ganglia (sham-operated or spinal nerve ligated animals)
From the text: We harvested control (L4 and L5) or axotomized (L5) ganglia, from control (SS) or hyperalgesic rats (SNL) respectively, between the 17th and 28th postoperative days. We sacrificed animals by decapitation under deep isoflurane anesthesia, excised ganglia through a lumbar incision, and at the same time confirmed accuracy of initial surgery.
For patch-clamp recordings, we placed excised DRG into separate 35 mm Petri dishes containing cold, oxygenated, Hanks Balanced Salt Solution (Gibko, Invitrogen, Grand Islan, NY), and minced them with iris scissors. We dissociated ganglia enzymatically in a solution containing 0.25 ml 0.05% w:v liberase blendzyme 2 (Roche Diagnostics Corp., Indianapolis, IN) and 0.25 ml DMEM/F12 with glutaMAX (Dulbecco's modified Eagle's medium F12; Gibco, Invitrogen Corp., Carlsbad, CA) in an incubator at 37°C for 30 min. We then removed the supernatant after centrifugation and re-incubated cells at 37°C for another 30 min in 0.2 ml 0.0625% trypsin (Sigma, St. Louis, MO) and 0.0125% deoxyribonuclease 1 (150,000 U, Sigma, St. Louis, MO) in 0.25 ml DMEM. We then isolated cells by centrifugation (600 rpm for 5 min) after adding 0.25 ml trypsin inhibitor 0.1% w:v (Sigma St. Louis, MO), and re-suspended them in a culture medium consisting of 0.5 mM glutamine, 0.02 mg/ml gentamicin (Gibco, Invitrogen Corp., Carlsbad, CA), 100 ng/ml nerve growth factor 7S (Alomone Labs, Jerusalem, Israel), 2% (vol/vol) B-27 supplement (Gibco, Invitrogen Corp., Carlsbad, CA), and 98% (vol/vol) neural basal medium A (Gibco, Invitrogen Corp., Carlsbad, CA). Finally, we plated cells onto poly-l-lysine-coated 12-mm glass coverslips (Deutsche Spiegelglas; Carolina Biologic Supply, Burlington, NC), kept them in a humidified incubator at 37°C with 95% air and 5% CO2, and studied them within 3–8 h of dissociation.
We visualized plated neurons using an inverted Nikon Diaphot 300 microscope with Hoffman modulation optic system. We selected only large diameter neuronal somata (≥ 40 μm in diameter) because we have previously shown that only these develop KATP current alterations, as well as changes indicative of increased excitability after painful-like nerve injury by SNL [74]. Large neuronal somata, roughly correspond to large, myelinated Aβ fibers.
(§1) We recorded current passing through single channels in inside-out or cell-attached patch configurations. In cell-attached patches, both bath and pipette (extracellular) solutions were composed of the following: 140 mM KCl, 10 mM HEPES, 5.5 mM dextrose, and 1 mM EGTA. In inside-out patches, the bath (intracellular) solution contained 140 mM KCl, 1.2 mM MgCl2, 10 mM HEPES, 1.5 mM EGTA and 5.5 mM dextrose. The pipette (extracellular) solution was of the same composition as that used in cell-attached recordings. The pH of all solutions was adjusted to 7.4 with KOH. Osmolality was adjusted approximately to 300 mOsm/l by adding sucrose if necessary. We pulled patch micropipettes from borosilicate glass capillaries using a Flaming/Brown micropipette puller, model P-97 (Sutter, San Rafael, CA) and flame polished them with a microforge polisher (Narishige, Tokyo, Japan) prior to use. Their resistance ranged between 3 and 6 MΩ when filled with the internal solution, and placed into the recording solutions.
(§2) We recorded single channel currents at room temperature (20–25°C) using an Axon CNS Multiclamp 700B amplifier, digitized them using an analog-to-digital converter (Axon CNS DigiData 1440A; Axon Instruments, Foster, CA), and stored them into a PC. Sampling frequency of single-channel data was 5 KHz with a low-pass filter (1 KHz). We used pClamp version 10.2 software (Axon Instruments) for data acquisition and analysis. We applied a conventional 50% current amplitude threshold level criterion to determine open events. Channel open probability (Po) was determined from the ratios of the area under the peaks in the amplitude histograms fitted by a Gaussian distribution. […]

[2] = target: T2, wild-type SUR1/Kir6.2 channels (Rattus norvegicus, UniProt P70673+Q09429); assay: Inside-out patch recording of recombinant wild-type channels expressed in COS7 cells; conditions: DTT 5 mM after SNAP 1 mM
T2 construct: A full-length Kir cDNA and a full-length SUR cDNA were subcloned into the mammalian expression vector; expressed in transfected cells; host or cells: COS7 cells (KATP channel-deficient), pcDNA3.1(-) vectors, GFP cDNA co-transfected as a separate reporter
Procedure: (§3) KATP channel-deficient COS7 cells were plated at a density of 3 × 10^5/dish (35 mm in diameter) and cultured in Dulbecco's modified Eagle's medium supplemented with 10% fetal calf serum. Rat Kir6.2 (GenBank X97041) and rat SUR1 (GenBank X97279) cDNAs were used for expression study. A truncated form of Kir6.2 lacking the last 36 amino acids at the C-terminus was obtained by polymerase chain reaction amplification. Polymerase chain reaction products were cloned into the pCR3.1 vector by using the TA cloning system (Invitrogen Corp., Carlsbad, CA, USA) and then cloned into the pcDNA3.1 (-) vector (Invitrogen Corp.) for mammalian expression. Point mutation of cysteine at position 717 (C717), C806, C1378, C1446, and C1491 within SUR1 to serine (C717S, C806S, C1378S, C1446S, and C1491S) was performed by using the Site-Directed Mutagenesis system (Invitrogen Corp.). All cDNA products were sequenced by using the BigDye terminator cycle sequencing kit and an ABI PRISM 377 DNA sequencer (Applied Biosystems, Foster City, CA) to confirm the sequence. A full-length Kir cDNA and a full-length SUR cDNA were subcloned into the mammalian expression vector pcDNA3.1 (-). For electrophysiological recordings, either wild-type or mutated pcDNA3.1 (-) Kir6.2 alone (1 μg), or pcDNA3.1 (-) Kir6.2 (1 μg) plus pcDNA3.1 (-) SUR1 (3 μg) were transfected into COS7 cells with green fluorescent protein cDNA as a reporter gene by using lipofectamine and Opti-MEN 1 reagents (Life Technologies Inc., Rockville, MD) according to the manufacturer's instructions. After transfection, cells were cultured at 37°C with 95% air and 5% CO2 for 48–72 h before being subjected to electrophysiological recordings.
as §1
as §2, with “We applied a conventional 50% current amplitude threshold level criterion to determine open events.” left out, “distribution. We calculated channel activity as NPo (where N is the number of observed channels in the patch) from data samples of either 30 s (in inside-out recordings), or 60 s (in cell-attached recordings), in the steady state.” for “distribution.”

[3] = target: T3, SUR1-C717S/Kir6.2 channels (Rattus norvegicus, UniProt P70673+Q09429, C717S); assay: Inside-out patch recording of mutated channels expressed in COS7 cells; conditions: DTT 5 mM; n = 7
T3 construct: A full-length Kir cDNA and a full-length SUR cDNA were subcloned into the mammalian expression vector; expressed in transfected cells; host or cells: COS7 cells, pcDNA3.1(-) vectors, GFP cDNA co-transfected as a separate reporter
Procedure: as §3, §1
as §2, with “We applied a conventional 50% current amplitude threshold level criterion to determine open events.” left out, “distribution. We calculated channel activity as NPo (where N is the number of observed channels in the patch) from data samples of either 30 s (in inside-out recordings), or 60 s (in cell-attached recordings), in the steady state.” for “distribution.”

T1 sequence (Q09429 whole entry): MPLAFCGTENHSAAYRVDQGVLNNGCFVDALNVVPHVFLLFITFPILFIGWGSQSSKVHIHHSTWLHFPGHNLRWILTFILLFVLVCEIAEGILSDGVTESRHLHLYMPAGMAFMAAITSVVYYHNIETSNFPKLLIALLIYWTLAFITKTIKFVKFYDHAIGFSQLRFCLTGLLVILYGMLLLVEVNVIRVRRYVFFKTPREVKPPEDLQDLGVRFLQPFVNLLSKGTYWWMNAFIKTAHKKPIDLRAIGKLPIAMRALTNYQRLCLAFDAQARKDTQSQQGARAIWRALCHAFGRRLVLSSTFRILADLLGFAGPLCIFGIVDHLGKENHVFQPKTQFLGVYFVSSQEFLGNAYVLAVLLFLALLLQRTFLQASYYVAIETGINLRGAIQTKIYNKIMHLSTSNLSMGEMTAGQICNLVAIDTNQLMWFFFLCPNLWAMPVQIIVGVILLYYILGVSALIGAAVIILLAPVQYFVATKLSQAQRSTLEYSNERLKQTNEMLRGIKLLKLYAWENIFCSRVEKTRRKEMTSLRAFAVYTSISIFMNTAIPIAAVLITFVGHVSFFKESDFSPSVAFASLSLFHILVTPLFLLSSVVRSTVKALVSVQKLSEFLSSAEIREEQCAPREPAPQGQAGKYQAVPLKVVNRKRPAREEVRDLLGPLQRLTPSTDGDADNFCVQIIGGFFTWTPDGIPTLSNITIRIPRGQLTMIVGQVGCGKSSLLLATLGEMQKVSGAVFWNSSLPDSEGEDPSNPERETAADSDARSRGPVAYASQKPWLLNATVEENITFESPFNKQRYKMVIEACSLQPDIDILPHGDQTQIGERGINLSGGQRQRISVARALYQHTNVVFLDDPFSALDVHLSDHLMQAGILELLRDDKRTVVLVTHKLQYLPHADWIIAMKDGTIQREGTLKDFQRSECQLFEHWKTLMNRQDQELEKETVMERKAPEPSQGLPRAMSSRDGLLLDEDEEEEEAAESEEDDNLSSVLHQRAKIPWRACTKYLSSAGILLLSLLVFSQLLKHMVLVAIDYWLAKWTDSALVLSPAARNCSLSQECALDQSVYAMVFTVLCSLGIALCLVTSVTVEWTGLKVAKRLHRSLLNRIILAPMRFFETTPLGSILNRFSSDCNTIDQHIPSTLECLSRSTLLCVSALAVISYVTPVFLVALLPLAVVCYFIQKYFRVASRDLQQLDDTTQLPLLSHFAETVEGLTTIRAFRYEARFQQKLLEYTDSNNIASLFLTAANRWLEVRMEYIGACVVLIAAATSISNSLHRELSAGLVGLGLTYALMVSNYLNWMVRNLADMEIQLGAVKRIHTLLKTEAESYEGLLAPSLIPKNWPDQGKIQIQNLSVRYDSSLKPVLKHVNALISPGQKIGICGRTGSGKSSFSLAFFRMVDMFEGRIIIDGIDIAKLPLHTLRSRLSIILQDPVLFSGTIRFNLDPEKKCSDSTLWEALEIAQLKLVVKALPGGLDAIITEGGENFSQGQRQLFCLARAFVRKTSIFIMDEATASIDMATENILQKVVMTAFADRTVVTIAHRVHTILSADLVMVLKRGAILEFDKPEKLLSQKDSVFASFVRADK
T1 sequence (P70673 whole entry): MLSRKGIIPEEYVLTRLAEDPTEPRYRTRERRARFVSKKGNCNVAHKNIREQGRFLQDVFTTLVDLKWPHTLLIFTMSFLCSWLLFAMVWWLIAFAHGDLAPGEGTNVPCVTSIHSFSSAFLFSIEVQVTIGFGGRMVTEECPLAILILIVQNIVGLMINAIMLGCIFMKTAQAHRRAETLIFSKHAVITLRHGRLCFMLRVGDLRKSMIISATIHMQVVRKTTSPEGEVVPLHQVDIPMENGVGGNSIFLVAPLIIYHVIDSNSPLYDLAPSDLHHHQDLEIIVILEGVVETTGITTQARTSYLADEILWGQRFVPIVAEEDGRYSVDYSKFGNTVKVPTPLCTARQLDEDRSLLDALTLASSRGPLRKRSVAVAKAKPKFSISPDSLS
T2 sequence (Q09429 whole entry): as the sequence (Q09429 whole entry) above
T2 sequence (P70673 whole entry): as the sequence (P70673 whole entry) above
T3 sequence (Q09429 whole entry C717S): as the sequence (Q09429 whole entry) above, with C717S counted along it
T3 sequence (P70673 whole entry): as the sequence (P70673 whole entry) above

effect on SNAP-induced KATP channel activation ([1]; SS neurons, DTT 5 mM after SNAP 100 μM, 1 mM [ATP]i, n = 7): completely reversed
direct effect on KATP channels in inside-out patches ([1]; agent alone, vs. baseline/control): no direct effect
effect on SNAP-activated currents [2]: almost completely suppressed
effect on SNAP-induced channel activation [3]: reversed
Compound: O[C@@H](CS)[C@@H](O)CS (racemic) [DTT, di-thiothreitol]
